{
  "source": "ChEMBL document CHEMBL3826959",
  "about": "“Modification of existing antibiotics in the form of precursor prodrugs that can be subsequently activated by nitroreductases of the target pathogen” (Bioorg Med Chem Lett, 2016)",
  "key": {"[1]": {"system": "Staphylococcus saprophyticus", "assay": "Antibacterial activity against Staphylococcus saprophyticus ATCC 15305 assessed as zone of inhibition at 51 ug/disc measured after 16 to 24 hrs by agar diffusion method", "format": "functional", "details": "read-out: DIZ"}, "[2]": {"system": "Staphylococcus saprophyticus", "assay": "Antibacterial activity against Staphylococcus saprophyticus ATCC 15305 assessed as bacterial survival measured after 18 hrs by broth dilution method", "format": "functional"}, "[3]": {"system": "Staphylococcus saprophyticus", "assay": "Antibacterial activity against Staphylococcus saprophyticus ATCC 15305 measured after 18 hrs by broth dilution method", "format": "functional", "details": "ATCC 15305, 18 h"}, "[4]": {"assay": "Drug level assessed as Staphylococcus saprophyticus ATCC 15305 nitroreductase B mediated compound formation using 130 uM NO2-SMX measured after 200 mins in presence of NADPH-cofactor generating system by LC-MS/MS analysis", "format": "ADME", "details": "isolated protein"}, "[5]": {"system": "Staphylococcus saprophyticus", "assay": "Antibacterial activity against Staphylococcus saprophyticus ATCC 15305 measured after 18 hrs by agar dilution method", "format": "functional", "details": "ATCC 15305, 18 h"}, "[6]": {"system": "Staphylococcus saprophyticus", "assay": "microbe, parasite or virus in culture", "details": "ATCC 15305, read-out: DIZ", "description": "Antibacterial activity against Staphylococcus saprophyticus ATCC 15305 assessed as zone of inhibition at 300 ug/disc measured after 16 to 24 hrs by agar diffusion method"}, "[7]": {"assay": "Stability of the compound", "format": "physicochemical"}, "[8]": {"system": "Staphylococcus saprophyticus", "assay": "Antibacterial activity against Staphylococcus saprophyticus ATCC 15305 assessed as zone of inhibition at 57 ug/disc measured after 16 to 24 hrs by agar diffusion method", "format": "functional"}, "[9]": {"assay": "Prodrug activation assessed as Staphylococcus saprophyticus ATCC 15305 nitroreductase B mediated […] at 130 uM measured after 200 mins in presence of NADPH-cofactor generating system by LC-MS/MS analysis", "details": "isolated protein"}, "[10]": {"assay": "Prodrug activation assessed as Staphylococcus saprophyticus ATCC 15305 nitroreductase B mediated sulfamethoxazole formation at 130 uM measured after 200 mins in presence of NADPH-cofactor generating system by LC-MS/MS analysis", "details": "isolated protein"}, "[11]": {"assay": "Prodrug activation assessed as Staphylococcus saprophyticus ATCC 15305 nitroreductase B mediated N-OH-sulfamethoxazole formation at 130 uM measured after 200 mins in presence of NADPH-cofactor generating system by LC-MS/MS analysis", "details": "isolated protein"}, "[12]": {"assay": "Drug level assessed as Staphylococcus saprophyticus ATCC 15305 nitroreductase B mediated compound formation using at 2 mM NO2-SMX 2 mM in presence of NADPH-cofactor generating system by ESI-MS analysis", "format": "ADME", "details": "isolated protein, 2000 µM"}, "[13]": {"system": "Staphylococcus saprophyticus", "assay": "Activity at Staphylococcus saprophyticus ATCC 15305 nitroreductase B by UV-vis spectrophotometry based Michaelis-Menten plot analsysis"}, "[14]": {"assay": "Prodrug activation assessed as Staphylococcus saprophyticus ATCC 15305 nitroreductase B mediated sulfamethoxazole formation at 2 mM in presence of NADPH-cofactor generating system by ESI-MS analysis", "details": "isolated protein, 2000 µM"}, "[15]": {"assay": "Prodrug activation assessed as Staphylococcus saprophyticus ATCC 15305 nitroreductase B mediated […] at 2 mM in presence of NADPH-cofactor generating system by ESI-MS analysis", "details": "isolated protein, 2000 µM"}, "[16]": {"assay": "Prodrug activation assessed as Staphylococcus saprophyticus ATCC 15305 nitroreductase B mediated N-OH-sulfamethoxazole formation at 2 mM in presence of NADPH-cofactor generating system by ESI-MS analysis", "details": "isolated protein, 2000 µM"}, "[17]": {"system": "Staphylococcus saprophyticus", "assay": "Antibacterial activity against Staphylococcus saprophyticus ATCC 15305 assessed as zone of inhibition at 54 ug/disc measured after 16 to 24 hrs by agar diffusion method", "format": "functional", "details": "read-out: DIZ"}},
  "note": "The source made the active and inactive calls. The rule behind the calls is not given here.",
  "data": [
    {"molecule": "Cc1cc(NS(=O)(=O)c2ccc(N)cc2)no1", "note": "[SULFAMETHOXAZOLE]", "values": [
      {"measurement": "zone of inhibition at 51 µg/disc", "setting": "[1]", "value": 16, "unit": "mm"},
      {"measurement": "Activity", "setting": "[2]", "value": 12, "unit": "%"},
      {"measurement": "MIC", "setting": "[3]", "value": 4100, "unit": "µg/mL"},
      {"measurement": "Drug metabolism", "setting": "[4]", "value": "metabolite_detected"},
      {"measurement": "MIC", "setting": "[5]", "value": 2050, "unit": "µg/mL"}
    ]},
    {"molecule": "O=C1CN(/N=C/c2ccc([N+](=O)[O-])o2)C(=O)N1", "note": "[NITROFURANTOIN]", "values": [
      {"measurement": "MIC", "setting": "[3]", "value": 8, "unit": "µg/mL"},
      {"measurement": "MIC", "setting": "[5]", "value": 8, "unit": "µg/mL"},
      {"measurement": "zone of inhibition at 300 µg/disc", "setting": "[6]", "value": 18, "unit": "mm"}
    ]},
    {"molecule": "Cc1cc(NS(=O)(=O)c2ccc(N=O)cc2)no1", "values": [
      {"measurement": "Drug metabolism", "setting": "[4]", "value": "metabolite_detected"},
      {"measurement": "Stability", "setting": "[7]", "value": "Unstable"}
    ]},
    {"molecule": "NC(=O)N/N=C/c1ccc([N+](=O)[O-])o1", "note": "[NITROFURAZONE]", "values": [
      {"measurement": "MIC", "setting": "[3]", "value": 32, "unit": "µg/mL"},
      {"measurement": "MIC", "setting": "[5]", "value": 128, "unit": "µg/mL"}
    ]},
    {"molecule": "Cc1cc(NS(=O)(=O)c2ccc([N+](=O)[O-])cc2)no1", "values": [
      {"measurement": "MIC", "setting": "[3]", "value": 2050, "unit": "µg/mL"},
      {"measurement": "MIC", "setting": "[5]", "value": 2050, "unit": "µg/mL"},
      {"measurement": "diameter of the inhibition zone (DIZ)", "setting": "[8]", "value": "inactive"},
      {"measurement": "Drug metabolism", "setting": "[9]", "value": "metabolite_detected"},
      {"measurement": "Drug metabolism", "setting": "[10]", "value": "metabolite_detected"},
      {"measurement": "Drug metabolism", "setting": "[11]", "value": "metabolite_detected"},
      {"measurement": "Drug metabolism", "setting": "[12]", "value": "metabolite_detected"},
      {"measurement": "Km", "setting": "[13]", "value": 92.6, "unit": "µM"},
      {"measurement": "kcat", "setting": "[13]", "value": 2.95, "unit": "s⁻¹"},
      {"measurement": "Drug metabolism", "setting": "[14]", "value": "metabolite_notdetected"},
      {"measurement": "Drug metabolism", "setting": "[15]", "value": "metabolite_detected"},
      {"measurement": "Drug metabolism", "setting": "[16]", "value": "metabolite_detected"}
    ]},
    {"molecule": "Cc1cc(NS(=O)(=O)c2ccc(NO)cc2)no1", "values": [
      {"measurement": "MIC", "setting": "[3]", "value": 2050, "unit": "µg/mL"},
      {"measurement": "Drug metabolism", "setting": "[4]", "value": "metabolite_detected"},
      {"measurement": "zone of inhibition at 54 µg/disc", "setting": "[17]", "value": 10, "unit": "mm"}
    ]}
  ]
}
